pKd: −log10 of the molar value.
Assays:
FADD−/− Jurkat cells = assay: Necroptosis inhibition assay, TNF-α-induced necroptosis (CellTiter-Glo 2.0); format: cell-based, human; conditions: TNF-α 15 ng/mL; for Necroptosis inhibition assay (Rescue %) 1 μM: compound 1 μM; for Necroptosis inhibition assay (Rescue %) 10 μM: compound 10 μM
Procedure, shortened: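 Tested at three fixed concentrations (0.1, 1, 10 μM final) with a 30-minute room-temperature preincubation ahead of 15 ng/mL TNF-α challenge lasting 20 to 24 hours. Inhibition rate and cytotoxicity derive from ATP luminescence.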

MLKL [1] = biological target: T1, MLKL (Homo sapiens, UniProt Q8NB16); assay: MLKL degradation assay in HepG2 cell line (western blot); format: cell-based; parameters: endogenous in cells; host or cells: HepG2 or HaCaT; conditions: cell line not given; for Degradation assay (Degradation %) 1 μM: compound 1 μM; for Degradation assay (Degradation %) 10 μM: compound 10 μM
T1 sequence (Q8NB16 1-471): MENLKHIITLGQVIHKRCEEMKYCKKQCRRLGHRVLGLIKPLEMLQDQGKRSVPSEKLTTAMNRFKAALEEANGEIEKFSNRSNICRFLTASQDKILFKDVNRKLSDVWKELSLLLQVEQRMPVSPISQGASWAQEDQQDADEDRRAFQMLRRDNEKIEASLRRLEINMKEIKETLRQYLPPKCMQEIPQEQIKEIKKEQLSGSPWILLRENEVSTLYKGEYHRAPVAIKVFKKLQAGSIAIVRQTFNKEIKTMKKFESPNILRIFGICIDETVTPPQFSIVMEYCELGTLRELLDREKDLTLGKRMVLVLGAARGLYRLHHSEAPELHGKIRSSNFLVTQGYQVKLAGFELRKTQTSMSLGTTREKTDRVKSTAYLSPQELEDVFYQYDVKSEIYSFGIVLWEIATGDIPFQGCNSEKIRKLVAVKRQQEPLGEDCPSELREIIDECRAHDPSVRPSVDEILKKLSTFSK
Procedure, shortened: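 Degradation is judged from MLKL band intensity on immunoblots of HepG2 lysates taken after 20-24 hours of compound at final 1 or 10 μM.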

MLKL [2] = biological target: T1, MLKL; assay: Measurement of binding affinity with MLKL receptor (competitive binding assay, Kd); parameters: made in house; host or cells: HEK 293 cell line (T7 phage in E. coli BL21-derived host is also described)
Procedure, shortened: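 HEK 293-expressed, DNA-tagged MLKL; ligand beads blocked with biotin and SeaBlock/1% BSA/0.05% Tween 20/1 mM DTT buffer. Cpd from 111× DMSO stock, 0.9% DMSO final. Eluted kinase by qPCR → Kd.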

SMILES | Degradation assay (Degradation %) 1 μM (MLKL [1]) | Degradation assay (Degradation %) 10 μM (MLKL [1]) | pKd (MLKL [2]) | Necroptosis inhibition assay (Rescue %) 1 μM (FADD−/− Jurkat cells) | Necroptosis inhibition assay (Rescue %) 10 μM (FADD−/− Jurkat cells) | Necroptosis inhibition assay (Rescue %) 1 μM (FADD−/− Jurkat cells; FADD−/− Jurkat cells) | Necroptosis inhibition assay (Rescue %) 10 μM (FADD−/− Jurkat cells; FADD−/− Jurkat cells)
Nc1ncc(-c2cnn(C3CCN(CCCN4CCN(C(=O)CNc5cccc6c5C(=O)N(C5CCC(=O)NC5=O)C6=O)CC4)CC3)c2)nc1C(=O)OC(C(=O)Nc1ccc(F)cc1)c1ccccc1 (centres unmarked) [TDH-241, 2-((4-fluorophenyl)amino)-2-oxo-1-phenylethyl 3-amino-6-(1-(1-(3-(4-((2-(2,6-dioxopiperidin-3-yl)-1,3-dioxoisoindolin-4-yl)glycyl)piperazin-1-yl)propyl)piperidin-4-yl)-1H-pyrazol-4-yl)pyrazine-2-carboxylate] | 64.55% | 64.03% | 8.54 | 50.09% | 28.85% | – | –
Nc1ncc(-c2cnn(C3CCN(CC4CN(C(=O)COc5cccc6c5C(=O)N(C5CCC(=O)NC5=O)C6=O)CCO4)CC3)c2)nc1C(=O)OC(C(=O)Nc1ccc(F)cc1)c1ccccc1 (centres unmarked) [TDH-308, 2-((4-fluorophenyl)amino)-2-oxo-1-phenylethyl 3-amino-6-(1-(1-((4-(2-((2-(2,6-dioxopiperidin-3-yl)-1,3-dioxoisoindolin-4-yl)oxy)acetyl)morpholin-2-yl)methyl)piperidin-4-yl)-1H-pyrazol-4-yl)pyrazine-2-carboxylate] | 55.12% | 69.64% | 8.77 | 76.28% | 56.73% | – | –
Nc1ncc(-c2cnn(C3CCN(CCOC4CCN(C(=O)CNc5ccc6c(c5)C(=O)N(C5CCC(=O)NC5=O)C6=O)CC4)CC3)c2)nc1C(=O)OC(C(=O)Nc1ccc(F)cc1)c1ccccc1 (centres unmarked) [TDH-250, 2-((4-fluorophenyl)amino)-2-oxo-1-phenylethyl 3-amino-6-(1-(1-(2-((1-((2-(2,6-dioxopiperidin-3-yl)-1,3-dioxoisoindolin-5-yl)glycyl)piperidin-4-yl)oxy)ethyl)piperidin-4-yl)-1H-pyrazol-4-yl)pyrazine-2-carboxylate] | 78.33% | 71.54% | 8.31 | 69.46% | 46.6% | – | –
Nc1ncc(-c2cnn(C3CCN(CC4CCN(C(=O)CCc5cccc6c5C(=O)N(C5CCC(=O)NC5=O)C6=O)CC4)CC3)c2)nc1C(=O)O[C@@H](C(=O)Nc1ccc(F)cc1)c1ccccc1 (stereo partly drawn) [TDH-336, (R)-2-((4-fluorophenyl)amino)-2-oxo-1-phenylethyl 3-amino-6-(1-(1-((1-(3-(2-(2,6-dioxopiperidin-3-yl)-1,3-dioxoisoindolin-4-yl)propanoyl)piperidin-4-yl)methyl)piperidin-4-yl)-1H-pyrazol-4-yl)pyrazine-2-carboxylate] | 73.04% | 66.71% | 8.85 | 39.89% | 19.67% | – | –
Nc1ncc(-c2cnn(C3CCN(CCCN4CCN(C(=O)CC5CCN(c6ccc7c(c6)C(=O)N(C6CCC(=O)NC6=O)C7=O)CC5)CC4)CC3)c2)nc1C(=O)O[C@@H](C(=O)Nc1ccc(F)cc1)c1ccccc1 (stereo partly drawn) [TDH-369, (R)-2-((4-fluorophenyl)amino)-2-oxo-1-phenylethyl 3-amino-6-(1-(1-(3-(4-(2-(1-(2-(2,6-dioxopiperidin-3-yl)-1,3-dioxoisoindolin-5-yl)piperidin-4-yl)acetyl)piperazin-1-yl)propyl)piperidin-4-yl)-1H-pyrazol-4-yl)pyrazine-2-carboxylate] | 73.33% | 94% | 8.96 | 48.04% | 22.49% | – | –
Nc1ncc(-c2cnn(C3CCN(CC4CCN(C(=O)COc5cccc6c5C(=O)N(C5CCC(=O)NC5=O)C6=O)CC4)CC3)c2)nc1C(=O)O[C@@H](C(=O)Nc1ccc(F)cc1)c1ccccc1 (stereo partly drawn) [TDH-148, (R)-2-((4-fluorophenyl)amino)-2-oxo-1-phenylethyl 3-amino-6-(1-(1-((1-(2-((2-(2,6-dioxopiperidin-3-yl)-1,3-dioxoisoindolin-4-yl)oxy)acetyl)piperidin-4-yl)methyl)piperidin-4-yl)-1H-pyrazol-4-yl)pyrazine-2-carboxylate] | 46.29% | 48.24% | 8.85 | 54.25% | 15.48% | – | –

These reach a higher pKd (MLKL [2]). Values come first.

Degradation assay (Degradation %) 1 μM (MLKL [1]) | Degradation assay (Degradation %) 10 μM (MLKL [1]) | pKd (MLKL [2]) | SMILES | Necroptosis inhibition assay (Rescue %) 1 μM (FADD−/− Jurkat cells) | Necroptosis inhibition assay (Rescue %) 10 μM (FADD−/− Jurkat cells) | Necroptosis inhibition assay (Rescue %) 1 μM (FADD−/− Jurkat cells; FADD−/− Jurkat cells) | Necroptosis inhibition assay (Rescue %) 10 μM (FADD−/− Jurkat cells; FADD−/− Jurkat cells)
8.68% | 62.79% | 9.08 | Nc1ncc(-c2cnn(C3CCN(CCCCCCNC(=O)C4CN(c5ccc6c(c5)C(=O)N(C5CCC(=O)NC5=O)C6=O)C4)CC3)c2)nc1C(=O)O[C@@H](C(=O)Nc1ccc(F)cc1)c1ccccc1 (stereo partly drawn) [TDH-114, (R)-2-((4-fluorophenyl)amino)-2-oxo-1-phenylethyl 3-amino-6-(1-(1-(6-(1-(2-(2,6-dioxopiperidin-3-yl)-1,3-dioxoisoindolin-5-yl)azetidine-3-carboxamido)hexyl)piperidin-4-yl)-1H-pyrazol-4-yl)pyrazine-2-carboxylate] | 13.68% | 38.3% | – | –
50.12% | 88.68% | 9.47 | Nc1ncc(-c2cnn(C3CCN(CC4CCN(CC5CCN(C(=O)COc6ccc7c(c6)C(=O)N(C6CCC(=O)NC6=O)C7=O)CC5)CC4)CC3)c2)nc1C(=O)O[C@@H](C(=O)Nc1ccc(F)cc1)c1ccccc1 (stereo partly drawn) [TDH-425, (R)-2-((4-fluorophenyl)amino)-2-oxo-1-phenylethyl 3-amino-6-(1-(1-((1-((1-(2-((2-(2,6-dioxopiperidin-3-yl)-1,3-dioxoisoindolin-5-yl)oxy)acetyl)piperidin-4-yl)methyl)piperidin-4-yl)methyl)piperidin-4-yl)-1H-pyrazol-4-yl)pyrazine-2-carboxylate] | – | – | 67.90% | –
92.48% | 90.67% | 9.59 | COc1ccc(C(=O)N2CCC(CN3CCC(CN4CCC(n5cc(-c6cnc(N)c(C(=O)O[C@@H](C(=O)Nc7ccc(F)cc7)c7ccccc7)n6)cn5)CC4)CC3)CC2)cc1N1CCC(=O)NC1=O [TDH-477, (R)-2-((4-fluorophenyl)amino)-2-oxo-1-phenylethyl 3-amino-6-(1-(1-((1-((1-(3-(2,4-dioxotetrahydropyrimidin-1(2H)-yl)-4-methoxybenzoyl)piperidin-4-yl)methyl)piperidin-4-yl)methyl)piperidin-4-yl)-1H-pyrazol-4-yl)pyrazine-2-carboxylate] | – | – | 62.38% | 21.83%

From patent US20240252488A1 (KOREA RESEARCH INSTITUTE OF CHEMICAL TECHNOLOGY, priority 2020, published 2024)
